In patent US7094581B2, “Hyaluronan synthases and methods of making and using same” (The Board of Regents of the University of Oklahoma, priority 1998, dated 2006):
Values joined by “and” are separate entries in the source; they are usually repeats but may differ in a detail not shown here. Equal entries are not always repeated.

Assays:
[1] = tested on: seHAS; experiment: Effect of sulfhydryl reagents on seHAS activity in E. coli membranes; format: biochemical, Streptococcus equisimilis; settings: E. coli membranes with seHAS-H6, 4° C. 1 h, 5 mM NEM, 5 mM IAA, 0.5 mM 5,5′-dithiobis-(2-nitrobenzoic acid), 0.05 mM methylmethanethiosulfonate, 10 mM sodium arsenite
Experimental: SeHAS is the smallest HAS protein (417 amino acids) and contains four Cys residues. […] To explore the possible role of cysteines in the function of HAS, the activities of seHAS and spHAS were assayed in the presence of different sulfhydryl reagents (Table II). […] The inhibition of each HAS by NEM was examined in more detail with respect to time of incubation and NEM concentration (FIG. 2).
E. coli SURE cells transformed with plasmids containing various seHAS mutants were grown in LB medium with vigorous shaking at 32° C. to A600 ˜0.8 and induced with 1 mM isopropyl-β-thiogalactoside for 3 h. Cells were harvested and membranes were prepared as described previously. The kinetic constants for HAS were determined at 37° C. in 100 μl of 50 mM sodium and potassium phosphate, pH 7.0, with 20 mM MgCl2, 1 mM DTE, 240 μM UDP-GIcUA, 0.7 μM UDP-[^14C]GIcUA and 0.6–1.0 mM UDP-GIcNAc. in 100 μl of 25 mM sodium and potassium phosphate, pH 7, containing 50 mM NaCl, 20 mM MgCl2, 1 mM dithiothreitol, 1 mM UDP-GIcUA, 0.68 μM UDP-GIcUA and 1 mM UDP-GIcNAc. Some assays also contained 0.1 mM EDTA and 20% glycerol (v/v). To initiate the enzyme reaction, ˜0.5–40 μg of membrane protein was added and the mixtures were gently shaken in a MicroMixer X-36 (Tiatec) at 30° C. for 1–2 h. Reactions were terminated by the addition of SDS to a final concentration of 2% (w/v). The incorporation of radioactive [^14C]GIcUA was determined by descending paper chromatography and the Km and Vmax values were determined as described by Tlapak-Simmons et al (1999b). Data were analyzed by the methods of Michaelis-Menton or Hill. Protein content was determined by the method of Bradford using bovine serum albumin as the standard. All Cys-mutant or sulfhydryl-treated seHAS samples were assayed in duplicate or triplicate using two or three independent membrane preparations. […] All enzyme assays were performed under conditions that were linear with respect to time and protein concentration.
Stock solutions (10–100 mM) of NEM, IAA or other sulfhydryl reagents were made in PBS, pH 7.0. Suspensions of membranes containing seHAS or spHAS were incubated with 0–5 mM of the sulfhydryl reagent at 4° C. and the reactions were stopped by adding DTE to a final concentration of 10 mM. The membranes were then assayed for HAS activity as described above.

[2] = tested on: triple Cys-mutants of seHAS; experiment: NEM inactivation of triple Cys-mutants of seHAS and protection by substrates; format: biochemical, Streptococcus equisimilis; settings: 5 mM NEM, 4° C., 10 min
Experimental: FIG. 6. Substrates protect triple Cys-mutants of seHAS from inactivation by NEM. E. coli membranes containing the indicated triple Cys-mutant of seHAS (each with a single remaining Cys residue) were treated at 4° C. for 10 min with no additions (control; 100% values) or with 5 mM NEM alone and in the presence of either UDP, UDP-GIcUA or UDP-GIcNAc. Unreacted Nem was then quenched and HAS activity was determined. Results are not shown for the mutant containing only Cys^367, since NEM inactivation of this mutant is ˜10% and all values were essentially identical.
Although the 4 Cys residues in seHAS (positions 226, 262, 281 and 367) are roughly conserved in all Class I HAS family members, the Cys-null mutants of seHAs and spHAS are active, with minimal changes in their kinetics compared to wild type. It is also shown here that neither HAS contains disulfide bonds. To understand why these four cysteines are, nevertheless, largely conserved within the Class I HASs, NEM sensitivity was examined (i.e., the time- and dose-dependent inhibition) of all possible Cys-to-Ala mutants of seHAS. […] Cys281 appears not to be within a UDP-sugar binding site, since the triple Cys-mutant seHAS (A3C)C281 was not protected from NEM inhibition by UDP, UDP-GIcUA or UDP-GIcNAc (FIG. 6).
Stock solutions (10–100 mM) of NEM, IAA or other sulfhydryl reagents were made in PBS, pH 7.0. […]

## CCN1C(=O)C=CC1=O [N-ethylmaleimide]
[1]
  Inhibition of HAS Activity (% relative to control), seHAS: 70 ± 4.8%
[1]; listed as NEM
  Inhibition of HAS Activity (% relative to control), seHAS: ~70% and 60–70%
[2]
  NEM inactivation of the seHAS mutant containing only Cys^367: ~10%
